In US9321838B2, “Therapy targeting cathepsin S” (Fusion Antibodies Limited, priority 2006, dated 2016):

Assays:
[1] = test system: U251MG grade IV glioblastoma cell line; conditions: U251MG cells, in the presence of the Cat S inhibitor; cited from earlier work
other cathepsins = conditions: at higher concentrations; cited from earlier work
RKO+/+ cells [2] = experiment: flow cytometry of CatS cell surface expression with/without CPT11; assay type: cell-based, human; conditions: CPT11 48 hour treated; basal 38%
Procedure: (§1) Cells were collected from tissue culture plates using a scraper and washed ×3 in PBS (0.01% tween) (5 minute centrifugation at 1500 rpm). Approximately 5×10^5 cells were placed in appropriately labelled tubes. Cells were incubated with 50 μl anti-CatS or Isotype control (Sigma, UK) for 1 hour at room temperature. Following incubation each tube was washed ×3 in PBS (0.01% tween) (5 minute centrifugation at 1500 rpm). Samples were then incubated with a 1 in 15 dilution of FITC-conjugated goat anti-mouse secondary antibody (Sigma, UK) (samples kept in dark at room temperature). Following incubation each tube was washed ×3 in PBS (0.01% tween) (5 minute centrifugation at 1500 rpm). Samples were resuspended in 0.5 ml of PBS prior to immediate analysis using the Cyan flow cytometer (Dako, UK). Cell surface expression of CatS was examined using flow Cytometry.

H630 p53 mutant cells = experiment: as above; assay type: cell-based, human; conditions: CPT11 48 hour treated; basal 37%
Procedure: as §1

HCT116+/+ cells [3] = experiment: as above; assay type: cell-based, human; conditions: CPT11 48 hour treated; basal 39%
Procedure: as §1

RKO+/+ cells [4] = experiment: western blot of CatS in whole cell lysates with/without CPT11; assay type: cell-based, human; conditions: 48 hour CPT11 treatment (7.5 μM), whole cell lysate
Procedure: (§2) Cells were washed in PBS (5 minute centrifugation at 1500 rpm) prior to lysis with RIPA buffer containing a protease inhibitor cocktail (Calbiochem, UK) as previously described. Whole cell lysates were loaded onto 12% SDS-PAGE gels at equal concentrations. Gels were run overnight at 50V prior to semi-dry transfer onto nitrocellulose membrane at 20V for 45 minutes (BioRad, UK). The nitrocellulose membrane was blocked using PBS (3% Milk powder) for ˜1 hour, and washed ×3 with PBS (0.01% tween) for 5 minutes. The membrane was then probed with a 1 in 1000 dilution of CatS Mab (1E4 Mab or 1E11 Mab) in PBS (3% Milk powder) for 1 hour. The membrane was washed ×3 with PBS (0.01% tween) for 5 minutes prior to the addition of a 1 in 5000 dilution of secondary goat anti mouse-HRP conjugated antibody (BioRad, UK) in PBS (3% Milk powder) for 1 hour. This was then washed three times in PBS (0.01% tween) for 5 minutes each. The membrane was ‘developed’ by ECL (enhanced chemiluminescence) using the Super Signal kit (Pierce). The membrane was incubated in ECL solution for 5 minutes, prior to exposure to photographic film for various time periods. The photographic film was washed in developer solution (Sigma, UK) for 1 minute, rinsed with water, and washed in fixer solution (Sigma, UK) again for 1 minute before being rinsed and dried. […]

HCT116+/+ cells [5] = experiment: as above; assay type: cell-based, human; conditions: 48 hour CPT11 treatment (7.5 μM), whole cell lysate
Procedure: as §2

RKO+/+ cells [6] = experiment: RT semi quantitative PCR of CatS mRNA with/without CPT11; assay type: cell-based, human; conditions: 7.5 μM CPT11, 48 hour; treated vs untreated
HCT116+/+ cells [7] = experiment: as above; assay type: cell-based, human; conditions: 7.5 μM CPT11, 48 hour; treated vs untreated
[8] = test system: HCT116+/+ human colorectal adenocarcinoma xenograft; experiment: HCT116+/+ xenograft model, immunohistochemistry of tumour sections; assay type: in vivo, SCID mice; conditions: 15 mg/kg; sections stained with CatS 1E11 mAb; vs untreated
Procedure: 6-8 week old female SCID mice were implanted with 2×10^6 HCT116+/+ human colorectal adenocarcinoma cells into each flank. […] They were mixed with equal volumes of matrigel to give a final concentration of 5×10^6 cells/ml. Mice were randomly separated into treatment groups on day 5 after implantation and treated with various regimes of CatS Mab or Isotype control Mab (10 mg/kg) with/without 5Fu (15 mg/kg daily or 70 mg/kg twice weekly). All drugs were administered through a bolus injection. Animals were sacrificed at various time points and tumours were removed for analysis.
Paraffin embedding of formalin-fixed xenograft/organ tissue samples, section cutting and H&E (haematoxylin and eosin) staining of tissue sections were performed as previously described. Immunostaining was performed using the avidin-horseradish peroxidase method (Vectorlabs ABC Kit).
Briefly, sections were deparaffinised by passing from xylene to alcohol to running water. Endogenous peroxidase activity was blocked by incubation in 3% H2O2 in methanol for 10 min. Sections were then boiled in citrate buffer, pH6.0, for 22 min. Incubation in 5% normal horse serum blocking solution was carried out for 20 min at room temp. Sections were incubated with primary antibody at 4° C. overnight. Appropriate isotype controls were used at the same dilutions as primary antibodies. […]

Structure (SMILES): CC(C)C[C@H](NC(=O)N1CCOCC1)C(=O)N[C@H](/C=C/S(=O)(=O)c1ccccc1)CCc1ccccc1 [LHVS, 4-Morpholineurea-Leu-HomoPhe-vinylsulphone]
- reduction in invasion [1]: 61%
- inhibition of other cathepsins (other cathepsins): inhibit other cathepsins when used at higher concentrations

Structure (SMILES): CCc1c2c(nc3ccc(OC(=O)N4CCC(N5CCCCC5)CC4)cc13)-c1cc3c(c(=O)n1C2)COC(=O)[C@]3(O)CC [CPT11, Irinotecan]
- positive CatS cell surface expression following chemotherapy induction (RKO+/+ cells [2]): 49%
- positive CatS cell surface expression following chemotherapy induction (H630 p53 mutant cells): 41%
- positive CatS cell surface expression following chemotherapy induction (HCT116+/+ cells [3]): 59%
- CatS whole protein expression, treated vs untreated (RKO+/+ cells [4]): no obvious difference in whole protein expression levels
- CatS whole protein expression, treated vs untreated (HCT116+/+ cells [5]): no obvious difference in whole protein expression levels
- CatS mRNA expression in response to chemotherapy (RKO+/+ cells [6]): increase in expression
- CatS mRNA expression in response to chemotherapy (HCT116+/+ cells [7]): increase in expression

Structure (SMILES): O=c1[nH]cc(F)c(=O)[nH]1 [5-Fu, Fluorouracil, reference compound]
- CatS expression in tumour sections from treated mice [8]: upregulation in CatS expression
